Experimental data reported in patent US20190201430A1, “TREATING OCULAR NEOVASCULARIZATION” (Massachusetts Eye and Ear Infirmary, priority 2014, published 2019).

Experiments:
AMPK [1] = assay: Western blotting of AMPK phosphorylation in HUVEC (Example 1); format: cell-based, human; conditions: each concentration of AICAR for 2 h, FIG. 2A
Method: (§1) HUVECs (Lonza, Walkersville, Md.) were cultured in Endothelial Growth Medium (EGM, Lonza, Walkersville, Md.). For all experiments, cells were grown at 37° C. in a humidified atmosphere of 5% CO2 and 95% air. Experiments were performed on cells below passage 3 to 6 grown to 80-90% confluence.
(§2) Protein extraction and western blotting were carried out as described previously (Morizane et al. JBC). Densitometric analysis of bands was performed using ImageJ software. Lane-loading differences were normalized by β-actin.

AMPK [2] = assay: Western blotting of AMPK phosphorylation in HUVECs (Example 2); format: cell-based, human
Method: (§3) Human umbilical vein endothelial cells (HUVECs) were cultured in endothelial growth medium (EGM, Lonza, Walkersville, Md.). Normal human dermal fibroblasts (NHDFs) were cultured in fibroblast basal medium (ATCC, Rockville, Md.). Cells were grown at 37° C. in a humidified atmosphere of 95% air, 5% CO2. Experiments were performed on cells below passage 3 to 6 grown to 80%-90% confluence.
(§4) Protein extraction and Western blotting were carried out as described previously (Morizane et al. JBC (26)). We conducted a densitometric analysis of bands using ImageJ software. Lane-loading differences were normalized by β-actin.

HUVEC monolayer = assay: In vitro vascular permeability assay (Alexa 555-BSA leakage); format: cell-based, human; conditions: AICAR 2 mM 2 h, VEGF 12.5 ng/mL 10 min; FIG. 10A
Method: We conducted the in vitro vascular permeability assay using Alexa Flour 555-labeled bovine serum albumin (BSA) (Invitrogen) and an In Vitro Vascular Permeability Assay kit (Millipore). According to the manufacturer's instructions, HUVECs were seeded at a density of 1×10^5 on a collagen-coated polystyrene filter. After a confluent monolayer was formed, each chamber was treated with AICAR or stimulated with VEGF. To measure endothelial permeability, 100 μL of Alexa Flour 555-BSA solution (0.050 mg/mL) was added into the insert and incubated for 10 min, and then the insert was removed and 100 μL medium was collected from the bottom chamber.
The fluorescent density of samples was analyzed on a SPECTRAmax GEMINI XS Microplate Spectrofluorometer (Molecular Devices, Sunnyvale, Calif.) at excitation and emission wavelengths of 555 nm and 565 nm, respectively.

c-Abl = assay: Western blotting of VEGF induced c-Abl phosphorylation in HUVECs; format: cell-based, human; conditions: AICAR 2 mM 2 h
Method: as §3, §4
(§5) Cells were transfected with siRNAs using a Nucleofection kit (Amaxa Biosystems, Gaithersburg, Md.), following the manufacturer's protocol. The medium was changed 6 h after transfection. The down-regulation of each protein was evaluated 3 days after nucleofection.

[3] = system: HUVECs cocultured with NHDFs; assay: In vitro angiogenesis (tube formation) assay; format: cell-based, human; conditions: AICAR 0.25, 0.5, 1.0, 2.0 mM; VEGF 12.5 ng/mL; FIG. 8A,B
Method: To evaluate the effects of AICAR on angiogenesis, HUVECs were cocultured with NHDFs in a 24-well plate with or without VEGF and AICAR. NHDF cells were seeded at 1.0×10^5 cells/well and then cultured for 2 wks to form a fibroblast cell sheet. […] Suramin (50 μM) was used as the inhibitor of VEGF. At 3, 7 and 10 days after treatment, cells were fixed at −20° C. in ethanol and acetone (1:1). Subsequently, cells were blocked with 1% bovine serum albumin (BSA) in phosphate-buffered saline for 30 min at room temperature, and then incubated with primary rabbit anti-human CD31 antibody overnight at 4° C. After the cells were washed with Tris-buffered saline (TBS), Alexa Flour 488 goat anti-rabbit IgG was applied for 2 h at room temperature. The tube length was quantified using a Kurabo Angiogenesis Image Analyzer (imaging software; Kurabo, Osaka, Japan).

[4] = system: retinoblastoma xenografts; conditions: AICAR-treated retinoblastoma xenografts; cited from earlier work
prdx1/c-Abl complex = assay: Co-immunoprecipitation of prdx1 and c-Abl under VEGF; format: cell-based, human; conditions: AICAR 2 mM 2 h, VEGF 12.5 ng/mL 10 min
Method: Immunoprecipitation was performed with the Universal Magnetic Co-IP Kit (Active Motif North America, Carlsbad, Calif.) according to the manufacturer's instruction.
as §5

caveolin-1 = assay: Western blotting of H2O2 induced caveolin-1 phosphorylation in HUVEC; format: cell-based, human; conditions: AICAR 2 mM 2 h
Method: as §1, §2
Cells were transfected with siRNAs using Nucleofection kit (Amaxa Biosysteins, Gaithersburg, Md.), following the manufacturer's protocol. The medium was changed at 6 h after transfection. The down-regulation of each protein was evaluated at 3 days after nucleofection.

Compound: NC(=O)c1ncn([C@@H]2O[C@H](CO)[C@@H](O)[C@H]2O)c1N [AICAR, 5-Aminoimidazole-4-carboxamide riboside]
- AMPK phosphorylation after AICAR administration (AMPK [1]): phosphorylated AMPK dose-dependently
- AMPK phosphorylation on AICAR treatment (time course) (AMPK [2]; AICAR 2 mM, presence or absence of VEGF, FIG. 9A,B): resulted in AMPK and PTEN phosphorylation
- AMPK phosphorylation on AICAR administration (AMPK [2]; each concentration of AICAR for 2 h, FIG. 12A): dose dependent AMPK phosphorylation
- VEGF-induced albumin leakage (HUVEC monolayer): significantly suppressed
- VEGF induced phosphorylation of c-Abl (c-Abl; VEGF 12.5 ng/mL 0 to 60 min, FIG. 11A,B): significantly suppressed
- inhibitory effect of AICAR on VEGF-induced c-Abl phosphorylation after knockdown of either AMPKα isoform (c-Abl; AMPKα1 or α2 siRNA, VEGF 12.5 ng/mL 10 min, FIG. 13): abolished
- inhibitory effect of AICAR on VEGF-induced c-Abl phosphorylation in cells lacking prdx1 (c-Abl; prdx1 siRNA, VEGF 12.5 ng/mL 10 min, FIG. 15A,B): abolished
- VEGF-induced vascular tube formation (tube length) [3]: dose-dependent inhibition
- tumor vessel formation [4]: decrease in tumor vessel formation
- VEGF induced dissociation between prdx1 and c-Abl (prdx1/c-Abl complex; FIG. 15D): inhibited
- ability of AICAR to inhibit VEGF induced prdx1/c-Abl dissociation after knockdown of AMPKα1 or α2 (prdx1/c-Abl complex; AMPKα1 or α2 siRNA, FIG. 15F,G): decreased
- inhibitory effect of AICAR on H2O2 induced caveolin-1 phosphorylation after knockdown of either AMPKα isoform (caveolin-1; AMPKα1 or α2 siRNA HUVEC, H2O2 2 mM 30 min, FIG. 3): abolished
- H2O2 induced phosphorylation of caveolin-1 (caveolin-1; HUVEC, then H2O2 0.5-2.0 mM 30 min, FIG. 1A,B): significantly suppressed
- H2O2 induced caveolin-1 phosphorylation in c-Abl siRNA cells (caveolin-1; c-Abl siRNA HUVEC, H2O2 2 mM 30 min, FIG. 5D,E): did not change caveolin-1 phosphorylation significantly
- inhibitory effect of AICAR on H2O2 induced caveolin-1 phosphorylation in cells lacking prdx1 (caveolin-1; prdx1 siRNA HUVEC, H2O2 2 mM 30 min, FIG. 6A,B): abolished
